Test results published in PMC7724630, “Improving the Stability of EGFR Inhibitor Cobalt(III) Prodrugs” (Inorganic Chemistry, 2020).
Like-named read-outs stand apart in the source and are kept apart here.

Legend:
[1] = Cyclic voltammetry, cathodic peak potential Co(III)/Co(II); format: physicochemical; settings: 10 mM phosphate buffer pH 7.40, 0.1 M KCl, scan rate 30 mV/s, 1.5 mM complex
Description: As the reduction process is crucial for the activation of cobalt(III)-based prodrug systems, the redox properties of the complexes were investigated to elucidate the effects of ligand methylation at different positions. Cyclic voltammetry measurements were performed in aqueous solution at pH 7.40 (10 mM phosphate buffer with 0.1 M KCl). […] Also, at a much higher scan speed of 1000 mV/s, the redox processes were still completely irreversible (Figure S5).
The compounds were dissolved in 10 mM phosphate buffer (pH 7.40), with 0.1 M KCl as the supporting electrolyte, to obtain a final concentration of 1.5 mM. Electrochemical experiments were conducted on an EG&G PARC 273A potentiostat/galvanostat with scan rates of 30 and 1000 mV/s at room temperature. Argon was bubbled through the solution before every measurement to remove oxygen. A three-electrode configuration cell was used with a glassy carbon electrode as the working electrode, which was polished before every measurement. The reference electrode was Ag/AgCl/KCl (3.5 M), and the auxiliary electrode was a platinum wire. Electrodes were conditioned regularly in 1 M H2SO4 for 5–10 cycles between voltage limits of −1.0 and 1.0 V at a scan rate of 100 mV/s. The system was calibrated with 1.5 mM K3[Fe(CN)6] for every experiment. Redox potentials measured relative to the Ag/AgCl/KCl (3.5 M) reference electrode were converted for potentials against NHE by the addition of 0.205 V. Measurements were repeated at least three times, and the mean values were calculated.

[2] = Interaction with low-molecular weight reducing agents (GSH, AA, NADH), UV-vis and fluorometric detection; format: physicochemical; settings: 10 equiv of GSH, pH 7.40, 25 °C, 24 h
Description: The interaction of AA, GSH, and NADH at pH 7.40 (phosphate buffer) was investigated exemplarily for Co(acac)2L^+ and Co(Meacac)2L^+. The reaction was followed by ultraviolet–visible (UV–vis) and fluorometric detection at 25 °C with a 10-fold excess of reducing agent. Spectrofluorometry was proven to be an effective technique for monitoring this redox reaction, because the free EGFR inhibitor ligand L is highly fluorescent, while its cobalt(III) complex has negligible emission (vide supra).[17] Accordingly, an increase in the emission intensity is expected upon reduction and concomitant release of the free ligand. […] The same tendency was observed by UV–vis detection (data not shown). […] AA and NADH were also not able to reduce the two complexes even after 24 h. […]
Proton dissociation processes of PhEn were followed by UV–vis spectrophotometry and spectrofluorometry; samples were prepared in water containing 100 and 10 μM ligand, respectively, and 0.1 M KCl at 25 ± 0.2 °C. The proton dissociation constants and the UV–vis or fluorescence emission spectra of the individual species in the various protonation states were calculated by deconvolution of the spectra recorded in the pH range of 2.0–11.5 with PSEQUAD.[40] […] Batch samples contained 30 μM cobalt(III) complex and 10 equiv of AA, GSH, or NADH in PBS buffer (pH 7.40) and were used only once to record their UV–vis and fluorescence spectra. […]

[3] = system: EGFR phosphorylation at position Y1068 and ERK 1/2 in A431 cells; assay: Western blot of EGFR signaling (pEGFR Y1068, pERK 1/2) after EGF stimulation; format: cell-based, Human; settings: A431 serum-starved, 2 h drug, EGF 50 ng/mL 10 min, normoxic
A431 cancer cells = assay: MTT-based cytotoxicity assay under different O2 levels; format: cell-based, Human; settings: A431, 72 h
Serum stability, HPLC-MS = format: in vitro ADME; settings: FCS, 37 °C, pH 7.4, 50 μM, 26 h
Description: The data presented in the previous sections indicate that even in the presence of low-molecular weight reducing agents the cobalt(III) complexes are completely stable. Therefore, we wanted to investigate if this is still true in a more elaborate biological environment like blood serum. To this end, the four EGFR inhibitor complexes were dissolved in 50 mM phosphate puffer and mixed in a 1:10 ratio with fetal calf serum (FCS; buffered with 150 mM phosphate buffer to keep a stable pH of 7.4) to a final concentration of 50 μM. The samples were incubated at 37 °C and after 0, 2, 6, 24, and 26 h extracted with acetonitrile and measured by HPLC-MS. […] The intact complex could be observed at 14.2 min (blue peak, m/z 614.0). The red signal at the same retention time (Figure 7A; 14.2 min, m/z 358.1) is a mass spectrometry artifact and belongs to the free ligand generated during ionization of the complex.
For serum stability measurements, 135 μL of FCS, buffered with 150 mM phosphate (Na2HPO4/NaH2PO4) to maintain a pH value of 7.4, was mixed with 15 μL of a 500 μM stock solution of the respective complex in 50 mM phosphate buffer to reach a final concentration of 50 μM. The samples were incubated at 37 °C. At different time points, to 20 μL of serum was added 40 μL of ACN. […] The supernatant was taken up with a syringe and directly measured via HPLC-MS.

EGFR (ErbB1) = EGFR (ErbB1) (Homo sapiens, UniProt P00533); assay: Cell-free kinase inhibition assay (ZLYTE, Select Screen); format: biochemical; settings: 10 μM ATP (10-fold excess of ATP), 1% DMSO
Sequence of EGFR (ErbB1) (P00533 25-1210): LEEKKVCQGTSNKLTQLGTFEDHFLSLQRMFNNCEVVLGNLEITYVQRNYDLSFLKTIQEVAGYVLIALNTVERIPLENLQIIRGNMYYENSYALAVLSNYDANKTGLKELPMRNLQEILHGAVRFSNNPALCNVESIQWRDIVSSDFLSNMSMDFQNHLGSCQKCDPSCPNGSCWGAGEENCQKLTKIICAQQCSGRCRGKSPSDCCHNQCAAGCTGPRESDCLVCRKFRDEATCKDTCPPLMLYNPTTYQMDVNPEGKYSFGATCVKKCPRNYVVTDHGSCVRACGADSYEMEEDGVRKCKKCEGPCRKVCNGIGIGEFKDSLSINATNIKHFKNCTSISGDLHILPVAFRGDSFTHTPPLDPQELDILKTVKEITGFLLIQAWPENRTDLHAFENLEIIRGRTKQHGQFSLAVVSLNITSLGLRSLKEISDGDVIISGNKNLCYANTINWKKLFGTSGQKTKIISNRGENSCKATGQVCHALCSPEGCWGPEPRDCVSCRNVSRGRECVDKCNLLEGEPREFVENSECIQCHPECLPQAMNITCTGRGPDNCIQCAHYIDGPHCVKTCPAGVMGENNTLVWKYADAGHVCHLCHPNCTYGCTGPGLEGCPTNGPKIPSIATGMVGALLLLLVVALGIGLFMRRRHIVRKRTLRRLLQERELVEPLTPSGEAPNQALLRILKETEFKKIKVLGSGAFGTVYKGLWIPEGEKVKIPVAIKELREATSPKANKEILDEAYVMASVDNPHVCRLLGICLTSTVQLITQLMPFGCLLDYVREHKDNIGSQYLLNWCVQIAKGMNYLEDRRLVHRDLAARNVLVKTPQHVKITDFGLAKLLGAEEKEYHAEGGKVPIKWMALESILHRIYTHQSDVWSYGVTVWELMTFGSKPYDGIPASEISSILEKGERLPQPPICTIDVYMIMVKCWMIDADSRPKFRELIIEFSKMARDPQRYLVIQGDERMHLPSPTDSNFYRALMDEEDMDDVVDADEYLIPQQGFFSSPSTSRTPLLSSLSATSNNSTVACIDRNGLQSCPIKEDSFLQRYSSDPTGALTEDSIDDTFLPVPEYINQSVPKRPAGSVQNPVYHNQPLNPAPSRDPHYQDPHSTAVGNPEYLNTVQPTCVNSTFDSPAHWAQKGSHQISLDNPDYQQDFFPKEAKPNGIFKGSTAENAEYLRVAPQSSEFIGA

[4] = set-up: method as in PMID 29567575; settings: pH 7.40; cited from earlier work
[5] = previous work; cited from earlier work
[6] = system: EGFR phosphorylation at position Y1068 and ERK 1/2 in A431 cells; set-up: method as in PMID 25079700; settings: A431, normoxic; cited from earlier work
[7] = 0.1% O2, read-out: IC50 hypoxia with 0.1% O2
[8] = 1% O2, read-out: IC50 hypoxia with 1% O2
[9] = 5% O2, read-out: IC50 hypoxia with 5% O2
[10] = 21% O2, read-out: IC50 normoxia

reduction / release of free ligand L by GSH [2]	IC50 (EGFR (ErbB1)) [µM]	Structure (SMILES)	cathodic peak potential (Ec) vs NHE [1] [mV]	EGFR-inhibitory potential (pEGFR, pERK 1/2) [3]	IC50 (A431 cancer cells; [7]) [µM]	IC50 (A431 cancer cells; [8]) [µM]	IC50 (A431 cancer cells; [9]) [µM]	IC50 (A431 cancer cells; [10]) [µM]	intact compound after serum incubation (Serum stability, HPLC-MS) [%]	cobalt complex less active than the respective free ligand (A431 cancer cells; normoxia) [fold]	IC50 (A431 cancer cells; Homo sapiens, A-431, 0.1% O2, read-out: IC50 hypoxia with 0.1% O2) [µM]	IC50 (A431 cancer cells; Homo sapiens, A-431, 1% O2, read-out: IC50 hypoxia with 1% O2) [µM]	IC50 (A431 cancer cells; Homo sapiens, A-431, 5% O2, read-out: IC50 hypoxia with 5% O2) [µM]	IC50 (A431 cancer cells; Homo sapiens, A-431, 21% O2, read-out: IC50 normoxia) [µM]	log D7.40 [4]	pKa1 [5]	pKa2 [5]	EGFR-inhibitory potential (pEGFR, pERK 1/2) [6]
practically no reduction process		CC(=O)[C-](C)C(C)=O.CC(=O)[C-](C)C(C)=O.NCCNc1ccc2ncnc(Nc3cccc(Br)c3)c2c1.[Cl-].[Co+3] [Co(Meacac)2L^+, Bis(3-methyl-2,4-pentanedionato) N^6-(2-Aminoethyl)-N^4-(3-bromophenyl)quinazoline-4,6-diamine Cobalt(III) Chloride]	4	distinctly weakened EGFR-inhibitory potential	23.5 ± 5.1	25.3 ± 3.9	45.5 ± 2.7	51.9 ± 9.4										
		CC(=O)[CH-]C(C)=O.CC(=O)[CH-]C(C)=O.CNCCNc1ccc2ncnc(Nc3cccc(Br)c3)c2c1.[Cl-].[Co+3] [Co(acac)2MeL^+, Bis(2,4-pentanedionato) N^4-(3-Bromophenyl)-N^6-[2-(methylamino)ethyl]quinazoline-4,6-diamine Cobalt(III) Chloride]	120		11.9 ± 3.5	12.5 ± 3.1	13.5 ± 3.2	15.1 ± 1.6	50	~2								
	0.00029	NCCNc1ccc2ncnc(Nc3cccc(Br)c3)c2c1 [L, N^6-(2-Aminoethyl)-N^4-(3-bromophenyl)quinazoline-4,6-diamine]									13.7 ± 2.9	12.7 ± 2	12.8 ± 0.9	12 ± 1.3	1.86 ± 0.03[29]	< 1.0	9.21	potent EGFR inhibition
